Usually inhibition stands for how much of the control response was suppressed.

Common to all, as to assay type: in vivo
Experiment [1] has as its system Oriental lady's thumb (Persicaria longiseta). The experiment is described as follows: Test Example 7: common bean field, soil treatment, metobromuron + trifluralin. To be noted: soil, read-out: Growth inhibition rate of Oriental lady's thumb (%) Measured value. The text has this: (§1) When the herbicidal activity in a case where two active ingredients are combined, is larger than the simple sum of the respective herbicidal activities of the two active ingredients (the expected activity), it is called a synergistic effect. The activity expected by the combination of two active ingredients can be calculated as follows (Colby S. R., “Weed”, vol. 15, p. 20-22, 1967). E=α+β−(α×β[…]) where α: growth inhibition rate when treated with x (g/ha) of herbicide X, • β: growth inhibition rate when treated with y (g/ha) of herbicide Y, • E: growth inhibition rate expected when treated with x (g/ha) of herbicide X and y (g/ha) of herbicide Y.
(§2) On the 19th day after treatment, the state of growth of barnyardgrass was visually observed and evaluated in accordance with the following standards. The growth inhibition rate (%) [measured value] and the growth inhibition rate (%) [calculated value] calculated by the Colby's method, are shown in Table 2.
(§3) Growth inhibition rate (%)=inhibition rate) (%) of 0 (equivalent to the non-treated area) to 100 (complete kill) […]
On the 49th day after treatment, the state of growth of Oriental lady's thumb (Persicaria longiseta) which occurred naturally, was visually observed and evaluated in the same manner as in Test Example 1.

Experiment [2] concerns spotted knotweed (Polygonum lapathifolium L.). As to the kind of experiment: Test Example 2: soybean field, soil treatment, metobromuron + S-metolachlor. To be noted: Persicaria lapathifolia, soil, read-out: Growth inhibition rate of spotted knotweed (%) Measured value.
Excerpt: as §1, §2, §3
On the 50th day after treatment, the state of growth of spotted knotweed was visually observed and evaluated in the same manner as in Test Example 1.

Experiment [3] concerns barnyardgrass (Echinochloa crus-qalli L.). The experiment is described as follows: Test Example 5: adzuki bean field, soil treatment, metobromuron + fluazifop-P-butyl. To be noted: Echinochloa, soil, read-out: Growth inhibition rate of barnyardgrass (%) Measured value.
Excerpt: as §1, §2, §3
On the 39th day after treatment, the state of growth of barnyardgrass (Echinochloa crus-qalli L.) which occurred naturally, was visually observed and evaluated in the same manner as in Test Example 1.

The test system of experiment [4] is annual bluegrass (Poa annua L.). As to the kind of experiment: Test Example 19: pot, soil treatment, metobromuron + chlorpropham. As to conditions: soil, read-out: Growth inhibition rate of annual bluegrass (%) Measured value.
For experiment [5], the system named is large crabgrass (Digitaria sanquinalis L.). As to the kind of experiment: Test Example 28: pot, soil treatment, metobromuron + pendimethalin. As to conditions: soil, read-out: Growth inhibition rate of large crabgrass (%) Measured value.
Excerpt: as §1, §2
(§4) Growth inhibition rate (%)=inhibition rate) (%) of 0 (equivalent to the non-treated area) to 100 (complete kill)
Soil was put into a 1/300,000 ha pot, and seeds of large crabgrass (Digitaria sanquinalis L.) were sown. On the day after seeding, predetermined amounts of SC containing metobromuron as active ingredient (same as in Test Example 1) and EC containing pendimethalin as active ingredient (same as in Test Example 10) were diluted with water corresponding to 1,000 L per hectare and applied for soil treatment.
On the 27th day after treatment, the state of growth of large crabgrass was visually observed and evaluated in the same manner as in Test Example 1.

For experiment [6], the system named is Nepalese Smartweed (Persicaria nepalensis (Meisn.) H. Gross). The experiment is described as follows: Test Example 6: adzuki bean field, soil treatment, metobromuron + S-metolachlor. To be noted: soil, read-out: Growth inhibition rate of Nepalese Smartweed (%) Measured value.
Excerpt: as §1, §2, §4
In an adzuki bean agricultural field (9.6 square meters per one test section), predetermined amounts of SC containing metobromuron as active ingredient (same as in Test Example 1) and EC containing S-metolachlor as active ingredient (same as in Test Example 2) were diluted with water corresponding to 1,000 L per hectare and applied for soil treatment, prior to germination of adzuki bean and weeds.
On the 39th day after treatment, the state of growth of Nepalese Smartweed (Persicaria nepalensis (Meisn.) H. Gross) which occurred naturally, was visually observed and evaluated in the same manner as in Test Example 1.

Experiment [7] concerns redroot pigweed (Amaranthus retroflexus L.). As to the kind of experiment: Test Example 9: corn field, soil treatment, metobromuron + S-metolachlor. To be noted: soil, read-out: Growth inhibition rate of redroot pigweed (%) Measured value.
Excerpt: as §1, §2, §3
On the 49th day after treatment, the state of growth of redroot pigweed (Amaranthus retroflexus L.) which occurred naturally, was visually observed and evaluated in the same manner as in Test Example 1.

Experiment [8] relates to large crabgrass (Diqitaria sanquinalis L.). As to the kind of experiment: Test Example 11: corn field, foliar treatment, metobromuron + nicosulfuron. To be noted: Digitaria sanguinalis, foliar, read-out: Growth inhibition rate of large crabgrass (%) Measured value.
Excerpt: as §1, §2, §3
On the 30th day after treatment, the state of growth of large crabgrass was visually observed and evaluated in the same manner as in Test Example 1.

Experiment [9] deals with barnyardgrass (Echinochloa crus-qalli L.). As to the kind of experiment: Test Example 4: soybean field, soil treatment, metobromuron + trifluralin. As to conditions: soil, read-out: Growth inhibition rate of barnyardgrass (%) Measured value.
Excerpt: as §1, §2, §3
On the 50th day after treatment, the state of growth of barnyardgrass (Echinochloa crus-qalli L.) which occurred naturally, was visually observed and evaluated in the same manner as in Test Example 1.

For `CON(C)C(=O)Nc1ccc(Br)cc1` [Metobromuron, 3-(4-bromophenyl)-1-methoxy-1-methylurea], the inhibition at 1500 g/ha was 10% in experiment [1] and 40% in [6]. In addition, the inhibition at 1000 g/ha in experiment [2] stood at 58%; in [3], 53%; in experiment [6], 35%; in [7], 25%; in experiment [8] it was 25%; in experiment [9], 30%. Further, in experiment [4], the inhibition at 375 g/ha worked out at 50%. Further, the inhibition at 62.5 g/ha in [5] worked out at 0%. Further, in experiment [5], the inhibition at 125 g/ha worked out at 15%. The inhibition at 250 g/ha in [5] was found to be 35%.

(Values after US9993001B2, “Herbicidal composition” (ISHIHARA SANGYO KAISHA, LTD., priority 2014, dated 2018).)
